Reference: patent US12404250B2, “PARP inhibitors for treating cancer and asthma” (Oregon Health & Science University, priority 2018, dated 2025)

Experiments:
[1] = molecular target: PARP 1 (Homo sapiens, UniProt P09874); assay: In vitro IC50, PARP1; format: biochemical; settings: SEM from a minimum of three dose-response experiments
[2] = molecular target: PARP 2 (Homo sapiens, UniProt Q9UGN5); assay: In vitro IC50, PARP2; format: biochemical; settings: SEM from a minimum of three dose-response experiments
Chain of PARP 2 (Q9UGN5 whole entry): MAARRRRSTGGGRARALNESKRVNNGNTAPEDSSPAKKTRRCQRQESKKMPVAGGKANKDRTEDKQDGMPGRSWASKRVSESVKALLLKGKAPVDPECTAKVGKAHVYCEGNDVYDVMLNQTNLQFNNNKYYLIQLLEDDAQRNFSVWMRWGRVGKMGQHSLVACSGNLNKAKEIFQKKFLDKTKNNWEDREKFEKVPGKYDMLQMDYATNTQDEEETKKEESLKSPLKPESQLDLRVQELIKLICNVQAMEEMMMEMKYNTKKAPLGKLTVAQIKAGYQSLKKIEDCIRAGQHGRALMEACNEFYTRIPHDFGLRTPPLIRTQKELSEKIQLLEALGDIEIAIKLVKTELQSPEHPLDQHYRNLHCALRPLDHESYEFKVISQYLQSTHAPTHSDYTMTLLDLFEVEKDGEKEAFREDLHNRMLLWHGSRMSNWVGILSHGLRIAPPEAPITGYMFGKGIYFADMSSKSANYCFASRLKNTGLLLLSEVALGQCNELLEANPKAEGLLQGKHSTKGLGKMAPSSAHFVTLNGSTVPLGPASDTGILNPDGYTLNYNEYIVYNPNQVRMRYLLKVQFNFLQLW

[3] = molecular target: T1, PARP1/2 (Homo sapiens, UniProt P09874); assay: H2O2-stimulated PARP1/2 activity in HEK 293T cells (Western blot); format: cell-based; settings: H2O2 500 μM for 15 min, Western blot with ADPr binding reagent
T1 construct: expressed in transfected cells; host or cells: HEK 293T
T1 sequence (P09874 2-1014): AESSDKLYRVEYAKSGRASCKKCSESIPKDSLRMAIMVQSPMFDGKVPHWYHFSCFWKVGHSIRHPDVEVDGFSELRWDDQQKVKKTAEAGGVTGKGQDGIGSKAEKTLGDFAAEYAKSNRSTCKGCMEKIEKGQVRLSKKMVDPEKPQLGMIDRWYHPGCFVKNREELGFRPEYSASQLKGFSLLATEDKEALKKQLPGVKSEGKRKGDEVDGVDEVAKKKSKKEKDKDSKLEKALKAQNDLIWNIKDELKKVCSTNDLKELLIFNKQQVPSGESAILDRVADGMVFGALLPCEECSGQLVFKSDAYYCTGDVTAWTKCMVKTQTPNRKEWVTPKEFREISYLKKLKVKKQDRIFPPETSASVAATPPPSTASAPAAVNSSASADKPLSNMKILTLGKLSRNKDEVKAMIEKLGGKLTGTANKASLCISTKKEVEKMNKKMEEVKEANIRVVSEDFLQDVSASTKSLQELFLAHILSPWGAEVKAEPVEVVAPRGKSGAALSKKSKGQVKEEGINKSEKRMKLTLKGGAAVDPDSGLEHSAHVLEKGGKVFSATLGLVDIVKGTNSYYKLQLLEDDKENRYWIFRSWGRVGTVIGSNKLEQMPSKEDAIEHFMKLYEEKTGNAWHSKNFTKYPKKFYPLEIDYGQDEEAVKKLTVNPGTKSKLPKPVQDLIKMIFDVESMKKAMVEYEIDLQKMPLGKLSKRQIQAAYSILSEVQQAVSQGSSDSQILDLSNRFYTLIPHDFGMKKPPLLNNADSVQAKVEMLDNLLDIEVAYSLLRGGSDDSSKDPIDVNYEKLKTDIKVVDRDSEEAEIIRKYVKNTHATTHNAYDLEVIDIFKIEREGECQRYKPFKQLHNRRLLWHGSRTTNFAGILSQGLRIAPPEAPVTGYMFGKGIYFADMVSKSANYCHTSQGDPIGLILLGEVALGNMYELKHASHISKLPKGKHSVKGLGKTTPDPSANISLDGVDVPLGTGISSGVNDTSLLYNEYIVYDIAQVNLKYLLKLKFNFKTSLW
Description: Lysates were prepared and PAR/MARylation was analyzed by Western blot with an ADP-ribose (ADPr) binding reagent. Blot was also probed with antibodies for GFP and actin. The band of interest represents auto-PARylated GFP-PARP1. […] Lysates were prepared and PAR/MARylation was analyzed by Western blot with an ADP-ribose (ADPr) binding reagent. Blot was also probed with antibodies for GFP and actin.
Lysates were prepared and PAR/MARylation was analyzed by Western blot with an ADP-ribose (ADPr) binding reagent. Blot was also probed with antibodies for GFP and actin. The band of interest represents auto-PARylated GFP-PARP1.

[4] = molecular target: T2, PARP16 (Homo sapiens, UniProt Q8N5Y8); assay: In vitro IC50, immunoprecipitated GFP-PARP16 auto-MARylation; format: biochemical
T2 construct: expressed in transfected cells; host or cells: HEK 293T
T2 sequence (Q8N5Y8 1-322): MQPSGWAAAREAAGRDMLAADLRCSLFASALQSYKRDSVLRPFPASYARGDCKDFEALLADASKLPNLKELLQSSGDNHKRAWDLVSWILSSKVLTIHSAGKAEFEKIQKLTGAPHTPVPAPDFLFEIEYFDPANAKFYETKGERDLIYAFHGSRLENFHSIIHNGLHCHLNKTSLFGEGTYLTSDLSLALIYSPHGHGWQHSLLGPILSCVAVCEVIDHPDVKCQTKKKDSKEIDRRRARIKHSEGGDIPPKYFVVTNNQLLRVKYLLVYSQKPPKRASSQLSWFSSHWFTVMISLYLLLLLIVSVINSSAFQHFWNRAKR
Description: Auto-MARylation was analyzed by Western blot with an ADP-ribose (ADPr) binding reagent (uncropped blots shown below).

[5] = molecular target: T3, GFP-PARP11 (Homo sapiens, UniProt Q9NR21); assay: GFP-PARP11 localization at the nuclear envelope in HeLa cells; format: cell-based; settings: HeLa cells transfected with GFP-PARP11, 1 μM for 1 or 18 h
T3 construct: expressed in transfected cells; host or cells: HeLa
T3 sequence (Q9NR21 1-338): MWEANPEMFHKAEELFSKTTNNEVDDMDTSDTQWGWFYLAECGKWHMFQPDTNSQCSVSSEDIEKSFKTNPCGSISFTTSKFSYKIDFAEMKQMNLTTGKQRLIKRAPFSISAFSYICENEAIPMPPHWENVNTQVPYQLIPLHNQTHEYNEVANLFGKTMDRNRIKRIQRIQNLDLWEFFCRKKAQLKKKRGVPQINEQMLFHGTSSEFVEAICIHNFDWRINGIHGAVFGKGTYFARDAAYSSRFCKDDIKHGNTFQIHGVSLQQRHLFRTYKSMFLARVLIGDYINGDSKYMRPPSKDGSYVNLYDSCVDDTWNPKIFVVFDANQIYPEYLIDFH
Description: FIGS. 5A and 5B depict dissociation from the nuclear envelope in HeLa cells following ITK7 (Example 7) treatment. […] HeLa cells were transfected with GFP-PARP11 grown on glass cover-slips. After ITK7 (1 μM) treatment for 1 or 18 h cells were fixed and mounted using mounting medium containing DAPI. Images were taken on the Olympus FLUOVIEW™ 2000 microscope using an 60x/NA 1.40 oil objective (scale bar 10 μm).
HeLa cells were transfected with GFP-PARP11 grown on glass cover-slips. After ITK7 (1 μM) treatment for 1 or 18 h cells were fixed and mounted using mounting medium containing DAPI. Images were taken on the Olympus FLUOVIEW™ 2000 microscope using an 60x/NA 1.40 oil objective (scale bar 10 μm).

[6] = molecular target: T4, PARP 3 (Homo sapiens, UniProt Q9Y6F1); assay: In vitro IC50, PARP3; format: biochemical; settings: SEM from a minimum of three dose-response experiments
T4 sequence (Q9Y6F1 1-533): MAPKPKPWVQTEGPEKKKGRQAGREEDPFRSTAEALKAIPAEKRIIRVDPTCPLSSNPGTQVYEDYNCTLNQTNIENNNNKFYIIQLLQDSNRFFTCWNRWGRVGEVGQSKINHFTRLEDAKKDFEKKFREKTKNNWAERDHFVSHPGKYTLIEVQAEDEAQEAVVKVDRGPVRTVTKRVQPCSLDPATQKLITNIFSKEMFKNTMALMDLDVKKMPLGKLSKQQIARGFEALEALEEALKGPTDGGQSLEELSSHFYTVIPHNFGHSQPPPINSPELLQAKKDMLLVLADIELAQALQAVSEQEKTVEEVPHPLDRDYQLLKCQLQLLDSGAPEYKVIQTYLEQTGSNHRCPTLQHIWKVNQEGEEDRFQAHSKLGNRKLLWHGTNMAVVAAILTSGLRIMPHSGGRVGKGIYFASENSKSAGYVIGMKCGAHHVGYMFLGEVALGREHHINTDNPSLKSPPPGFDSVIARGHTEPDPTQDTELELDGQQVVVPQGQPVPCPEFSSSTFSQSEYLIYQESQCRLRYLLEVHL

Chain of PARP 1 (P09874 whole entry): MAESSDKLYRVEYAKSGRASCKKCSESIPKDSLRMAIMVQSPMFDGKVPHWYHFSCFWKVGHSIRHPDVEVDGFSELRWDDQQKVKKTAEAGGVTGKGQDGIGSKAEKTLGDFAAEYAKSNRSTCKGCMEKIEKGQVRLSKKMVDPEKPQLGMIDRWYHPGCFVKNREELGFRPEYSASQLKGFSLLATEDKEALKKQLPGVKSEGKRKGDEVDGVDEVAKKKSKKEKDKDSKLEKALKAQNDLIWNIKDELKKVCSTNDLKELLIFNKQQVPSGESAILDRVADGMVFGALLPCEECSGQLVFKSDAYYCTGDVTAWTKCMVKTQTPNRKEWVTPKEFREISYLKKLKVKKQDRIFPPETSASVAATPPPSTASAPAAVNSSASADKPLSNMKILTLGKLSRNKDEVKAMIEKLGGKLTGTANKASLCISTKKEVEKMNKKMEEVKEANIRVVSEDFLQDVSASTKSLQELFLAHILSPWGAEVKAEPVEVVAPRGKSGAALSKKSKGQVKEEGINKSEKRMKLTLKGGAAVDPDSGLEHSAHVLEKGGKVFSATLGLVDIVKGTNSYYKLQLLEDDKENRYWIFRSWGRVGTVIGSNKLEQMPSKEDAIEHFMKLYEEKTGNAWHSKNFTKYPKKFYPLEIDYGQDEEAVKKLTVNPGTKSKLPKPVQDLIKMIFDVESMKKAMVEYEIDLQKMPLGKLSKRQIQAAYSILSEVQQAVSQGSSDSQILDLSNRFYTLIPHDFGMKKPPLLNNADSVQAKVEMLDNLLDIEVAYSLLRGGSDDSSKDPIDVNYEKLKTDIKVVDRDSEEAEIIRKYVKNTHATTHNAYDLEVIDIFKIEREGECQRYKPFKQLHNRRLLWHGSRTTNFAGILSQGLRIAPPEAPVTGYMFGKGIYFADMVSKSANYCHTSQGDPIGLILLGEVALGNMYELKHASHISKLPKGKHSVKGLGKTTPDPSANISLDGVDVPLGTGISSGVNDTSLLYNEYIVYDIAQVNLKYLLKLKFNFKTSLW

In the case of `CC#Cc1ccc2c(=O)[nH]c(CSc3ncccn3)nc2c1C` [ITK7, 8-methyl-7-(prop-1-yn-1-yl)-2-((pyrimidin-2-ylthio)methyl)quinazolin-4(3H)-one], the IC50 [1] is reported as over 30 µM, the IC50 [2] is reported as over 30 µM and the “Inhibition of H2O2-mediated PARP1 PARylation (PARP½ activity) in cells” value [3] is reported as “has no effect”. For the same compound, the IC50 [4] was over 3 µM, the “Dissociation of GFP-PARP11 from the nuclear envelope” value [5] was “causes GFP-PARP11 to dissociate from the nuclear envelope” and the IC50 [6] was over 30 µM.
